Reference: PMC3708395, “Hepatoprotective and Antioxidant Effects of Saponarin, Isolated from Gypsophila trichotoma Wend. on Paracetamol-Induced Liver Damage in Rats” (BioMed Research International, 2013)
“And” between values parts separate entries of the source, which are not always exact repeats. Equal entries are not always repeated. “Also recorded” adds a separate entry of the source. Each block holds one compound with its values, some of them ahead of it.

Experiments:
Male Wistar rats [1] = test: Lipid peroxidation (MDA) in rat liver homogenate, in vivo paracetamol model; conditions: for MDA: rat liver homogenate
Protocol: The animals were divided into six groups (n = 6). […] The animals in all groups were sacrificed on the eighth day of the beginning of the experiment. Livers were taken for assessment of biochemical parameters. For all following experiments the excised livers were washed out with cold saline solution (0.9% NaCl), blotted dray, weighed, and homogenized with appropriate buffers. Lipid peroxidation was determined by measuring the rate of production of thiobarbituric acid reactive substances (TBARS) (expressed as malondialdehyde (MDA) equivalents) described by Polizio and Peña with slight modifications. Briefly one volume of homogenate was mixed with 1 mL 25% trichloroacetic acid (TCA) and 1 mL 0.67% thiobarbituric acid (TBA). Samples were then mixed thoroughly, heated for 20 min in a boiling water bath, cooled and centrifuged at 4000 rpm for 20 min. The absorbance of supernatant was measured at 535 nm against a blank that contained all the reagents except the tissue homogenate. MDA concentration was calculated using a molar extinction coefficient of 1.56 × 10^5 M^−1 cm^−1 and expressed in nmol/g wet tissue.

Male Wistar rats [2] = test: GSH level in rat liver homogenate, in vivo paracetamol model; conditions: for GSH: rat liver homogenate
Protocol: The animals were divided into six groups (n = 6). […] The animals in all groups were sacrificed on the eighth day of the beginning of the experiment. Livers were taken for assessment of biochemical parameters. For all following experiments the excised livers were washed out with cold saline solution (0.9% NaCl), blotted dray, weighed, and homogenized with appropriate buffers. GSH was assessed by measuring nonprotein sulfhydryls after precipitation of proteins with TCA, using the method described by Bump et al.. Briefly, tissues were homogenized in 5% trichloroacetic acid (TCA) and centrifugated for 20 min at 4 000 ×g. […] The absorbance was determined at 412 nm and the results expressed as nmol/g wet tissue.

Male Wistar rats [3] = test: Antioxidant enzyme activities (SOD, CAT, GPx, GR, GST) in rat liver homogenate, in vivo paracetamol model; conditions: for CAT / GPx / GR / GST / SOD: rat liver homogenate
From the text: The animals were divided into six groups (n = 6). […] The animals in all groups were sacrificed on the eighth day of the beginning of the experiment. Livers were taken for assessment of biochemical parameters. For all following experiments the excised livers were washed out with cold saline solution (0.9% NaCl), blotted dray, weighed, and homogenized with appropriate buffers. The livers were rinsed in ice-cold physiological saline and minced with scissors. […] Catalase (CAT) activity was determined by measuring the decrease in absorbance at 240 nm. […] SOD activity was expressed as nmol of epinephrine that are prevented from autoxidation after addition of the sample. […] The rate of disappearance of NADPH with time was determined by monitoring absorbance at 340 nm. Results are expressed in nmol/mg. Glutathione reductase activity (GR) was measured according to the method of Pinto et al. by following NADPH oxidation spectrophotometrically at 340 nm and using an extinction coefficient of 6.22 mM^−1 cm^−1. […] The enzyme activity is expressed as nmol of CDNB-GSH conjugate formed/min/mg protein.

Male Wistar rats [4] = test: Phase I of biotransformation: cytochrome P450, EMND and AH in rat liver microsomes after in vivo treatment
Protocol: The animals were divided into six groups (n = 6). […] The animals in all groups were sacrificed on the eighth day of the beginning of the experiment. Livers were taken for assessment of biochemical parameters. For all following experiments the excised livers were washed out with cold saline solution (0.9% NaCl), blotted dray, weighed, and homogenized with appropriate buffers. The excised, perfused, and minced livers were homogenized with 3 mL of 1.17% KCl than centrifugated at 10 000 ×g for 30 min. The supernatant fractions were further centrifugated at 105 000 ×g for 60 min. The resulting microsomal pellets were stored at −20°C until assayed. At the day of assay the microsomal pellets were resuspended and diluted with phosphate buffer EDTA (pH = 7.4). Liver protein concentration was measured, using the method of Lowry and was adjusted to 4 mg/mL. (1) Assessment of Cytochrome P450 Quantity. Cytochrome P450 was quantified spectrophotometrically as a complex with CO at 450 nm and expressed as nmol/mg^−1 protein [28]. […] The method used 4-hydroxylation of aniline to 4-aminophenol that is chemically converted to a phenol-indophenol complex with an absorption maximum at 630 nm. Enzyme activity was expressed as nmol/min/mg. […] The enzyme activity was evaluated by the formation of formaldehyde, trapped in the solution as semicarbazone, and measured by the colorimetric procedure of Nash, at 415 nm. Enzyme activity was expressed as nmol/min/mg.

Male Wistar rats [5] = test: Histopathological study of liver; assay type: in vivo, rat
From the text: The animals were divided into six groups (n = 6). […] The animals in all groups were sacrificed on the eighth day of the beginning of the experiment. Livers were taken for assessment of biochemical parameters. For all following experiments the excised livers were washed out with cold saline solution (0.9% NaCl), blotted dray, weighed, and homogenized with appropriate buffers. For light microscopic evaluation, liver tissues were fixed in 10% buffered formalin and then thin sections (4 μm) were subsequently stained with hematoxylin/eosin for general histological features determination. Sections were studied under light microscope Leica DM 500.

[6] = set-up: method as in earlier work; conditions: concentration range 0.5 mg/mL; cited from earlier work
isolated rat hepatocytes = test: Paracetamol-induced model of toxicity in isolated rat hepatocytes; conditions: 30 min preincubation with saponarin 60–0.006 μg/mL, then paracetamol 100 μmol for one hour; concentration-dependent
Protocol: The effect of saponarin was compared to those of silymarin (50–0.005 μg/mL). The following parameters were measured to assess the functional status of hepatocytes: cell viability, lactate dehydrogenase (LDH) activity, reduced glutathione (GSH) levels, and malondialdehyde (MDA) quantity. Cell viability was assessed by Trypan blue exclusion method [19]. The dye was used at a final concentration of 0.05% and cells were counted under light microscope (×100). At the end of incubation, the cells were recovered via centrifugation at 400 ×g at 4°C. The supernatant was used for LDH and MDA assessment as described by Bergmeyer et al. [21] and Fau at al. [19], respectively. GSH measurement following the method used by Fau at al. [19] was assessed in the sediment.

[7] = saponarin 80 mg/kg bw/day p.o. 7 days, alone
[8] = saponarin 80 mg/kg p.o. 7 days pretreatment then paracetamol 600 mg/kg i.p.
[9] = saponarin pretreatment seven days then single i.p. paracetamol, compared to paracetamol alone
[10] = rat liver microsomes, saponarin 80 mg/kg bw/day p.o. 7 days, alone
[11] = saponarin alone 80 mg/kg p.o. 7 days, vs control
[12] = paracetamol 600 mg/kg i.p. alone
[13] = paracetamol 600 mg/kg i.p. alone, compared to control animals

AH activity (Male Wistar rats [4]; [10]): 0.047 ± 0.004 nmol/mg protein
Cytochrome P450 (Male Wistar rats [4]; [10]): 0.244 ± 0.05 nmol/mg protein
EMND activity (Male Wistar rats [4]; [10]): 0.371 ± 0.011 nmol/mg protein
decrease in AH activity (Male Wistar rats [4]; [11]): 37%
decrease in EMND activity (Male Wistar rats [4]; [11]): 24%
decrease in total P450 quantity (Male Wistar rats [4]; [11]): 25%
Compound: apigenin 6-C-glucosyl-7-O-glucoside [saponarin]
MDA (Male Wistar rats [1]; [7]): 0.635 ± 0.07 nmol/g protein
MDA content relative to control level (Male Wistar rats [1]; [8]): restored to the control level
reduction of MDA in rat liver homogenate (Male Wistar rats [1]; saponarin 80 mg/kg p.o. 7 days pretreatment then paracetamol 600 mg/kg i.p., compared to PC-treated group): 18%
GSH (Male Wistar rats [2]; [7]): 5.14 ± 0.31 nmol/g protein
GSH levels compared to the paracetamol-only group (Male Wistar rats [2]; [8]): significantly higher levels of GSH
CAT (Male Wistar rats [3]; [7]): 110.4 ± 16 μmol H2O2/min/mg protein
GPx (Male Wistar rats [3]; [7]): 0.125 ± 0.02 nmol/min/mg protein
GR (Male Wistar rats [3]; [7]): 0.207 ± 0.03 nmol/min/mg protein
GST (Male Wistar rats [3]; [7]): 0.208 ± 0.02 nmol CDNB-GSH conjugate formed/min/mg protein
SOD (Male Wistar rats [3]; [7]): 0.158 ± 0.015 nmol/min/mg protein
increase in GPx activity (Male Wistar rats [3]; [9]): 21%
increase in GR activity (Male Wistar rats [3]; [9]): 39%
increase in GST activity (Male Wistar rats [3]; [9]): 21%
increase in SOD activity (Male Wistar rats [3]; [9]): 24%
liver histopathology (Male Wistar rats [5]; rats pretreated with saponarin (80 mg/kg p.o. 7 days) then challenged with paracetamol 600 mg/kg i.p.): lower intensity of mononuclear accumulations and the presence of single cells showing intracellular oedema; also recorded: significant improvement of hepatocellular architecture
inhibition of DPPH radical [6]: 88.8%
protection against paracetamol-induced injury (cell viability, LDH activity, MDA quantity, GSH levels) (isolated rat hepatocytes): prevented the liver injury

increase of MDA level in rat liver homogenate (Male Wistar rats [1]; paracetamol 600 mg/kg i.p. alone, vs control animals): 30%
MDA (Male Wistar rats [1]; [12]): 0.854 ± 0.04 nmol/g protein
reduction in GSH levels in rat liver homogenate (Male Wistar rats [2]; [13]): 83%
GSH (Male Wistar rats [2]; [12]): 0.96 ± 0.05 nmol/g protein
decrease in CAT activity (Male Wistar rats [3]; [13]): 27%
decrease in GPx activity (Male Wistar rats [3]; [13]): 31-32%
decrease in GR activity (Male Wistar rats [3]; [13]): 38%
decrease in GST activity (Male Wistar rats [3]; [13]): 31% and 31-32%
CAT (Male Wistar rats [3]; [12]): 88.3 ± 10 μmol H2O2/min/mg protein
GPx (Male Wistar rats [3]; [12]): 0.089 ± 0.01 nmol/min/mg protein
GR (Male Wistar rats [3]; [12]): 0.137 ± 0.02 nmol/min/mg protein
SOD (Male Wistar rats [3]; [12]): 0.114 ± 0.012 nmol/min/mg protein
Compound: CC(=O)Nc1ccc(O)cc1 [paracetamol]
GST (Male Wistar rats [3]; [12]): 0.160 ± 0.01 nmol CDNB-GSH conjugate formed/min/mg protein
liver histopathology (Male Wistar rats [5]; paracetamol 600 mg/kg i.p. alone, hematoxylin/eosin, light microscopy): treatment-related changes associated with hepatotoxicity; also recorded: centriacinar and microvesicular accumulation of fats
